Activity calls are given as the source filed them. The calls are words filed in the database; no cut-off is given here.
Key:
HCT-116 = experiment: Cytotoxicity in human HCT116 cells by MTT assay; type: functional, cell-based
Dermcidin (Homo sapiens) = biological target: T1, Dermcidin (Homo sapiens) (UniProt P81605); experiment: Covalent binding affinity to DCD-1L (unknown origin) at 50 uM incubated for 24 hrs by denatured SDS-PAGE gel electrophoresis
T1 sequence (whole entry): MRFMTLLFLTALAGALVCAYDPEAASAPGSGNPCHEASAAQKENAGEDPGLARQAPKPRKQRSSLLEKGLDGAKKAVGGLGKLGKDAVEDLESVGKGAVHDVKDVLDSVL

Row | Activity (Dermcidin (Homo sapiens)) | Compound | IC50 (HCT-116)
1 | – | O=c1c2ccccc2c(=O)c2c1sc1c(=O)c3ccc(Cl)cc3c(=O)c12 | 0.28 µM
2 | – | O=C(Nc1ccc2c(=O)c3c(sc4c(=O)c5cc(NC(=O)C(F)(F)F)ccc5c(=O)c43)c(=O)c2c1)C(F)(F)F | 0.58 µM
3 | Active | O=C(O)CCc1ccc2c(=O)c3c(sc4c(=O)c5ccccc5c(=O)c43)c(=O)c2c1 | –
4 | Active | CC(C)=CCCc1ccc2c(=O)c3c(sc4c(=O)c5ccccc5c(=O)c43)c(=O)c2c1 | –
5 | – | O=C(Nc1ccc2c(=O)c3sc4c(=O)c5ccc(NC(=O)C(F)(F)F)cc5c(=O)c4c3c(=O)c2c1)C(F)(F)F | 0.48 µM
6 | – | O=c1c2ccc(O)cc2c(=O)c2c1sc1c(=O)c3ccc(O)cc3c(=O)c12 | 1.6 µM
7 | – | O=c1c2ccccc2c(=O)c2c1sc1c(=O)c3ccc(O)cc3c(=O)c12 | 1.2 µM
8 | – | O=c1c2ccccc2c(=O)c2c1sc1c(=O)c3cc(O)ccc3c(=O)c12 | 1.3 µM

— ChEMBL document CHEMBL4420075, “Seriniquinones, melanoma-specific anticancer agents” (2016)
